Laboratory results taken from US20240043427A1 (Gilead Sciences, Inc., priority 2020, published 2024).

Columns and labels:
CD73 [1] = target: T1, CD73 (Homo sapiens (Human), UniProt P21589); assay type: biochemical; conditions: 1 mM NaH2PO4 in enzyme buffer, CD73 0.3 nM, AMP 15 uM
CD73 [2] = target: T1, CD73; test: MDA-MB-231 Cell Based CD73 Activity Assay (DMEM); conditions: MDA-MB-231-GFP cells, DMEM medium with 10% human plasma, 200 uM AMP
Experimental: MDA-MB-231 Cell Based CD73 Activity Assay (DMEM) MDA-MB-231-GFP cells were seeded in 384-well plates (Greiner 781946) at a density of 3000 cells per well in 50 μL of DMEM medium with 10% HP (human plasma). Cells were plated into assay plate with compounds pre-spotted, for an overnight compound treatment. 50 uL of 400 uM AMP (final concentration will be 200 uM) was added using Bio-tek dispenser. Plates were incubated for 100 mins. […] The samples were analyzed using Rapid fire.

T1 sequence (P21589 27-574): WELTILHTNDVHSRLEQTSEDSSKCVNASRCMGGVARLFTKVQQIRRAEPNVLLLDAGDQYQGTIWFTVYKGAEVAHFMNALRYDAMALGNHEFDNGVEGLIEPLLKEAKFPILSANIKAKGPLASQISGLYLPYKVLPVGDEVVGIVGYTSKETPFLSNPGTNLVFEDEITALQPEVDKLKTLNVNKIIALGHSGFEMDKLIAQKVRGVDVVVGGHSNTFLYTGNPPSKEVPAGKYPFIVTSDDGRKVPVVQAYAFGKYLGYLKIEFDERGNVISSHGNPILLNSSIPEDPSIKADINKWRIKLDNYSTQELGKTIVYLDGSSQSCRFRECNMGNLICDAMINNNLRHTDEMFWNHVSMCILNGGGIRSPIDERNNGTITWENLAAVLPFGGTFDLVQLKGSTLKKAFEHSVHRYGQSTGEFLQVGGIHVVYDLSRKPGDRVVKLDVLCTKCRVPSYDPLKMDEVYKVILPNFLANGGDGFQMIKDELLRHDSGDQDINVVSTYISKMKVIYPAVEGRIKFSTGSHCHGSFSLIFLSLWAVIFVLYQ

SMILES	IC50 (CD73 [1]) [nM]	EC50 (CD73 [2]) [nM]
CC(C)n1ncc2ccc([C@H]3C[C@@H]3c3cc(-c4c[nH]c(=O)[nH]c4=O)nn4ccnc34)cc21 (racemic) [Example 119, 5-(8-((1S,2S)-2-(1-isopropyl-1H-indazol-6-yl)cyclopropyl)imidazo[1,2-b]pyridazin-6-yl)pyrimidine-2,4(1H,3H)-dione and 5-(8-((1R,2R)-2-(1-isopropyl-1H-indazol-6-yl)cyclopropyl)imidazo[1,2-b]pyridazin-6-yl)pyrimidine-2,4(1H,3H)-dione]	0.56	1.09
O=c1[nH]cc(-c2cc([C@H]3C[C@@H]3c3ccc(OC(F)F)nc3)c3ncc(F)n3n2)c(=O)[nH]1 (racemic) [Example 121, 5-(8-((1S,2S)-2-(6-(difluoromethoxy)pyridin-3-yl)cyclopropyl)-3-fluoroimidazo[1,2-b]pyridazin-6-yl)pyrimidine-2,4(1H,3H)-dione and 5-(8-((1R,2R)-2-(6-(difluoromethoxy)pyridin-3-yl)cyclopropyl)-3-fluoroimidazo[1,2-b]pyridazin-6-yl)pyrimidine-2,4(1H,3H)-dione]	1.08	19.7
O=C1N(CC(F)(F)F)c2cc([C@H]3C[C@@H]3c3cc(-c4c[nH]c(=O)[nH]c4=O)nn4ccnc34)ccc2C12CC2 (single isomer, unassigned) [Example 391]	1.01	
O=c1[nH]cc(-c2cc(N3CCC4(C3)CC4(F)F)c3nccn3n2)c(=O)[nH]1 (stereo not drawn) [Example 192]		20.9
O=C(c1ccc([C@H]2C[C@@H]2c2cc(-c3c[nH]c(=O)[nH]c3=O)nn3c(F)cnc23)cc1)N1CC(F)(F)C1 [Example 313, 5-(8-((1S,2S)-2-(4-(3,3-difluoroazetidine-1-carbonyl)phenyl)cyclopropyl)-3-fluoroimidazo[1,2-b]pyridazin-6-yl)pyrimidine-2,4(1H,3H)-dione]	2.35	
O=c1[nH]cc(-c2cc([C@H]3C[C@@H]3c3cnn(C(F)F)c3)c3ncc(F)n3n2)c(=O)[nH]1 [Example 371, 5-(8-((1S,2S)-2-(1-(difluoromethyl)-1H-pyrazol-4-yl)cyclopropyl)-3-fluoroimidazo[1,2-b]pyridazin-6-yl)pyrimidine-2,4(1H,3H)-dione]	4.95	
O=c1[nH]cc(-c2cc(N3CC4CC(F)(C4)C3)c3nccn3n2)c(=O)[nH]1 [Example 579, 5-(8-(1-fluoro-3-azabicyclo[3.1.1]heptan-3-yl)imidazo[1,2-b]pyridazin-6-yl)pyrimidine-2,4(1H,3H)-dione]		111
O=c1[nH]cc(-c2cc([C@H]3C[C@@H]3c3cc4c(cn3)cnn4CC(F)(F)F)c3ncc(F)n3n2)c(=O)[nH]1 [Example 611, 5-(3-fluoro-8-((1S,2S)-2-(1-(2,2,2-trifluoroethyl)-1H-pyrazolo[4,3-c]pyridin-6-yl)cyclopropyl)imidazo[1,2-b]pyridazin-6-yl)pyrimidine-2,4(1H,3H)-dione]	0.4	
O=c1[nH]cc(-c2cc([C@H]3C[C@@H]3c3cc4c(cnn4CC(F)(F)F)cc3F)c3ncc(F)n3n2)c(=O)[nH]1 [Example 613, 5-(3-fluoro-8-((1S,2S)-2-(5-fluoro-1-(2,2,2-trifluoroethyl)-1H-indazol-6-yl)cyclopropyl)imidazo[1,2-b]pyridazin-6-yl)pyrimidine-2,4(1H,3H)-dione]	0.58	
O=c1[nH]cc(-c2cc([C@H]3C[C@@H]3c3ccc4cnn(CC(F)(F)F)c4c3F)c3ncc(F)n3n2)c(=O)[nH]1 [Example 630, 5-(3-fluoro-8-((1S,2S)-2-(7-fluoro-1-(2,2,2-trifluoroethyl)-1H-indazol-6-yl)cyclopropyl)imidazo[1,2-b]pyridazin-6-yl)pyrimidine-2,4(1H,3H)-dione]		0.08
CC(C)(C)COc1cc(-c2c[nH]c(=O)[nH]c2=O)nn2ccnc12 [Example 679, 5-(8-(neopentyloxy)imidazo[1,2-b]pyridazin-6-yl)pyrimidine-2,4(1H,3H)-dione]		124
CC(C)NC(=O)O[C@H]1CN(c2cc(-c3c[nH]c(=O)[nH]c3=O)nc3ccnn23)CC1(F)F [Example 713, (S)-1-(5-(2,4-dioxo-1,2,3,4-tetrahydropyrimidin-5-yl)pyrazolo[1,5-a]pyrimidin-7-yl)-4,4-difluoropyrrolidin-3-yl isopropylcarbamate]		0.39
O=C1N(CC(F)(F)F)c2cc([C@H]3C[C@@H]3c3cc(-c4c[nH]c(=O)[nH]c4=O)nn4c(Cl)cnc34)ccc2C12CC2 [Example 740, 5-(3-chloro-8-((1S,2S)-2-(2′-oxo-1′-(2,2,2-trifluoroethyl)spiro[cyclopropane-1,3′-indolin]-6′-yl)cyclopropyl)imidazo[1,2-b]pyridazin-6-yl)pyrimidine-2,4(1H,3H)-dione]	0.61	
O=C1N(CC(F)(F)F)c2cc([C@H]3C[C@@H]3c3cc(-c4c[nH]c(=O)[nH]c4=O)nn4c(Cl)c(Cl)nc34)ccc2C12CC2 [Example 741, 5-(2,3-dichloro-8-((1S,2S)-2-(2′-oxo-1′-(2,2,2-trifluoroethyl)spiro[cyclopropane-1,3′-indolin]-6′-yl)cyclopropyl)imidazo[1,2-b]pyridazin-6-yl)pyrimidine-2,4(1H,3H)-dione]	0.49	

Other lines, results leading:

IC50 (CD73 [1]) [nM]	EC50 (CD73 [2]) [nM]	SMILES
2.72	2.53	O=c1[nH]cc(-c2cc([C@@H]3C[C@H]3c3cc(F)c(F)c(F)c3)c3nccn3n2)c(=O)[nH]1 (racemic) [Example 36]
0.69	0.37	O=c1[nH]cc(-c2cc([C@H]3C[C@@H]3c3ccc4cnn(CC(F)F)c4c3)c3nccn3n2)c(=O)[nH]1 (racemic) [Example 123, 5-(8-((1S,2S)-2-(1-(2,2-difluoroethyl)-1H-indazol-6-yl)cyclopropyl)imidazo[1,2-b]pyridazin-6-yl)pyrimidine-2,4(1H,3H)-dione and 5-(8-((1R,2R)-2-(1-(2,2-difluoroethyl)-1H-indazol-6-yl)cyclopropyl)imidazo[1,2-b]pyridazin-6-yl)pyrimidine-2,4(1H,3H)-dione]
3.11	6.37	O=c1[nH]cc(-c2cc([C@H]3C[C@@H]3c3ccc(OC(F)F)cn3)c3nccn3n2)c(=O)[nH]1 (racemic) [Example 136, 5-(8-((1S,2S)-2-(5-(difluoromethoxy)pyridin-2-yl)cyclopropyl)imidazo[1,2-b]pyridazin-6-yl)pyrimidine-2,4(1H,3H)-dione and 5-(8-((1R,2R)-2-(5-(difluoromethoxy)pyridin-2-yl)cyclopropyl)imidazo[1,2-b]pyridazin-6-yl)pyrimidine-2,4(1H,3H)-dione]
0.95	0.64	O=c1[nH]cc(-c2cc([C@H]3C[C@@H]3c3ccc4cnc(C(F)(F)F)cc4c3)c3nccn3n2)c(=O)[nH]1 (racemic) [Example 138, 5-(8-((1S,2S)-2-(3-(trifluoromethyl)isoquinolin-6-yl)cyclopropyl)imidazo[1,2-b]pyridazin-6-yl)pyrimidine-2,4(1H,3H)-dione and 5-(8-((1R,2R)-2-(3-(trifluoromethyl)isoquinolin-6-yl)cyclopropyl)imidazo[1,2-b]pyridazin-6-yl)pyrimidine-2,4(1H,3H)-dione]
2.1	24.8	O=c1[nH]cc(-c2cc([C@H]3C[C@@H]3c3cc(C(F)(F)F)c4ncccc4c3)c3nccn3n2)c(=O)[nH]1 (racemic) [Example 141, 5-(8-((1S,2S)-2-(8-(trifluoromethyl)quinolin-6-yl)cyclopropyl)imidazo[1,2-b]pyridazin-6-yl)pyrimidine-2,4(1H,3H)-dione and 5-(8-((1R,2R)-2-(8-(trifluoromethyl)quinolin-6-yl)cyclopropyl)imidazo[1,2-b]pyridazin-6-yl)pyrimidine-2,4(1H,3H)-dione]
0.96	3.76	O=c1[nH]cc(-c2cc([C@H]3C[C@@H]3c3ccc4nc(C(F)(F)F)ccc4c3)c3nccn3n2)c(=O)[nH]1 (racemic) [Example 142, 5-(8-((1S,2S)-2-(2-(trifluoromethyl)quinolin-6-yl)cyclopropyl)imidazo[1,2-b]pyridazin-6-yl)pyrimidine-2,4(1H,3H)-dione and 5-(8-((1R,2R)-2-(2-(trifluoromethyl)quinolin-6-yl)cyclopropyl)imidazo[1,2-b]pyridazin-6-yl)pyrimidine-2,4(1H,3H)-dione]
3.34	7.61	O=c1[nH]cc(-c2cc([C@H]3C[C@@H]3c3ccc(C(F)(F)F)cn3)c3nccn3n2)c(=O)[nH]1 (racemic) [Example 149, 5-(8-((1S,2S)-2-(5-(trifluoromethyl)pyridin-2-yl)cyclopropyl)imidazo[1,2-b]pyridazin-6-yl)pyrimidine-2,4(1H,3H)-dione and 5-(8-((1R,2R)-2-(5-(trifluoromethyl)pyridin-2-yl)cyclopropyl)imidazo[1,2-b]pyridazin-6-yl)pyrimidine-2,4(1H,3H)-dione]
3.45	17.5	O=c1[nH]cc(-c2cc([C@H]3C[C@@H]3c3ccc(C(F)(F)F)nc3)c3nccn3n2)c(=O)[nH]1 (racemic) [Example 152, 5-(8-((1S,2S)-2-(6-(trifluoromethyl)pyridin-3-yl)cyclopropyl)imidazo[1,2-b]pyridazin-6-yl)pyrimidine-2,4(1H,3H)-dione and 5-(8-((1R,2R)-2-(6-(trifluoromethyl)pyridin-3-yl)cyclopropyl)imidazo[1,2-b]pyridazin-6-yl)pyrimidine-2,4(1H,3H)-dione]
2.56		O=c1[nH]cc(-c2cc([C@H]3C[C@@H]3c3ccc(OC(F)(F)F)cn3)c3nccn3n2)c(=O)[nH]1 [Example 373, 5-(8-((1S,2S)-2-(5-(trifluoromethoxy)pyridin-2-yl)cyclopropyl)imidazo[1,2-b]pyridazin-6-yl)pyrimidine-2,4(1H,3H)-dione]
